Results: US20120289523A1, “PYRROLO [3,2-E] [1,2,4] TRIAZOLO [1,5-A] PYRIMIDINES DERIVATIVES AS INHIBITORS OF MICROGLIA ACTIVATION” (BTG INTERNATIONAL LIMITED, priority 2009, published 2012)

What was measured:
[1] = tested on: Mouse BALB/c monocyte macrophages, J774.2; test: Inhibition of β-amyloid induced activation: nitric oxide release (Griess assay); format: cell-based; conditions: 20 μM Aβ(1-42), 50 U/ml Interferon gamma, 24 hours
Procedure: (§1) Mouse BALB/c monocyte macrophages, J774.2, {ECACC 85011428} were grown and sub-cultured in cell media (DMEM containing 10% FBS, 1% L-glutamine and 1% penicillin/streptomycin). The J774 cells were plated at 100,000 cells/well in 50 μl cell media on 96 well plates and placed in a 37° C., 5% CO2 incubator overnight prior to experiments.
(§2) The addition of Aβ(1-42) and compounds to the J774 cells was performed using a Biotek precision 2000 liquid handling instrument. 3 μl of compound in DMSO ranging from 8 μM to 6 mM were pipetted into a “daughter plate” containing 294 μl of cell media and mixed thoroughly. 3 μl of Aβ(1-42) in DMSO at 4 mM was then added to the “daughter plate” and mixed thoroughly. 50 μl was then removed from the “daughter plate” and added to the plated J774 cells. The final concentrations in the wells containing 100 μl cell media were 20 μM Aβ(1-42), the compounds ranged from ˜40 nM to 30 μM in 1% DMSO and also in the presence of 50 U/ml Interferon gamma. The plates were incubated for 24 hours in a 37° C., 5% CO2 incubator. After 24 hours incubation the media from the wells were collected and stored at −20° C. until required for testing.
The nitric oxide levels in the media were tested using the Griess assay (Promega G2930) using the manufacturer's instructions.

[2] = tested on: Mouse BALB/c monocyte macrophages, J774.2; test: Inhibition of β-amyloid induced activation: TNF-alpha levels in media (ELISA or Meso Scale Discovery kit); format: cell-based; conditions: J774.2, 24 h, J774.2 cells, 20 μM Aβ(1-42), read-out: IC50 (μM) TNF-α
Procedure: as §1, §2
The TNF-alpha levels in the media were tested using a TNF-alpha ELISA (R&D Systems MTA00) or Meso Scale Discovery MS6000 Mouse Proinflammatory-7 kit, using the manufacturers instructions.

[3] = Cell permeability of compounds (Caco-2 or TC7 monolayers); format: in vitro ADME, human; conditions: human, Caco-2, apical-to-basolateral, 60 minutes at 37° C., read-out: Cell Perm A-B
Procedure: (§3) These were measured using the accepted in vitro intestinal epithelial model using either the human colon adeno-carcinoma cell line Caco-2 or a sub-clone of this cell line, TC7. The apparent permeability coefficient (Papp) was determined in the apical-to-basolateral (A-B) and the B-A directions across cell monolayers cultured on 96-well polycarbonate membrane filters. Compounds were tested at 10 μM with a final DMSO concentration of 1%. The assay plate was incubated for 60 minutes at 37° C. with gentle shaking. Samples were taken at time zero from the donor side and at the end of the incubation from both donor and receiver sides. Samples were analysed by HPLC-MS/MS. The Papp value (expressed as 10^−6 cm/sec) was then calculated based on the appearance rate of the compound in the receiver side (Gres, M. C. et al. (1998) Pharm. Res., 15, 726-733).

[4] = tested on: human colon adeno-carcinoma cell line Caco-2 or sub-clone TC7; test: as above; format: in vitro ADME; conditions: 10 μM; for Cell Perm A-B/B-A: ratio of Papp A-B to B-A, 60 minutes
Procedure: as §3

[5] = Metabolism of compounds, human liver microsomes; format: in vitro ADME; conditions: 1 μM compound, 0.3 mg/ml protein, 60 minutes at 37° C.; for half-life at 1 μM: human, pooled liver microsomes, read-out: Microsomes t1/2 (mins) Human
Procedure: (§4) These were measured by incubating 1 μM test compound with pooled liver microsomes (0.3 mg/ml) protein for 60 minutes at 37° C. Samples were analysed by HPLC-MS/MS (Kuhnz, W. and Gieschen, H. (1998) Drug Metab. Dispos., 26, 1120-1127).

[6] = Metabolism of compounds, rat liver microsomes; format: in vitro ADME; conditions: 1 μM compound, 0.3 mg/ml protein, 60 minutes at 37° C.; for half-life at 1 μM: rat, pooled liver microsomes, read-out: Microsomes t1/2 (mins) Rat
Procedure: as §4

CYP1A2 = target: T1, CYP1A2 (Homo sapiens, UniProt P05177); test: Inhibition of cytochrome P450 (P450-Glo) CYP1A2; format: biochemical; conditions: human recombinant enzyme, read-out: CYP450 Inhibition (IC50 microM) 1A2
T1 construct: purchased Promega Corporation
T1 sequence (P05177 1-516): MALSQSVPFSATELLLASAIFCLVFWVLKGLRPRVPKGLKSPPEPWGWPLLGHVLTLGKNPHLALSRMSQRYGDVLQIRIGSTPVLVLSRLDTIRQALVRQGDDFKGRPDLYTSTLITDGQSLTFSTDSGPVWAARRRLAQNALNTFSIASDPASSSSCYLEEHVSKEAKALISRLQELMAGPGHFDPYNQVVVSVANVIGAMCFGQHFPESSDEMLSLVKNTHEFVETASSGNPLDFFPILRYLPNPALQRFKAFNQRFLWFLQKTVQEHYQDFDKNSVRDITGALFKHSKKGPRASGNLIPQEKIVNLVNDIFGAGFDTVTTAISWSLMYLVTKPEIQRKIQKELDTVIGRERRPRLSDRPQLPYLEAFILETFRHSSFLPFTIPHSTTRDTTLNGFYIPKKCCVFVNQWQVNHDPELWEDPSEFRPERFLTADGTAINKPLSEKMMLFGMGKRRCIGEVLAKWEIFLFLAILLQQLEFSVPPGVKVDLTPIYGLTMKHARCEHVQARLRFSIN
Procedure: Tests were carried out using human recombinant enzymes CYP1A2, CYP2C9, CYP2C19, CYP2D6 and CYP3A4 and P450-Glo™ screening system (Promega Corporation). […] A 10-minute pre-incubation was performed. One-half the final volume of the 2×NADPH regeneration system was then added to initiate the CYP reactions, and bring all components to their 1×target concentrations. The plate is incubated at 37° C. for 30 minutes. The luciferin detection reagent was added which stops the CYP reaction and initiates luminescence. The signal was allowed to stabilize for 20 minutes at room temperature and then the luminescence was read. The net CYP-dependent luminescence was calculated by subtracting the average luminescence of the control reactions from the CYP-containing reactions. Changes from the average net signal of untreated CYP reactions for reactions with a test compound reflect the inhibition of CYP activity by this compound.

CYP2C9 = target: T2, CYP2C9 (Homo sapiens, UniProt P11712); test: Inhibition of cytochrome P450 (P450-Glo) CYP2C9; format: biochemical; conditions: human recombinant enzyme, read-out: CYP450 Inhibition (IC50 microM) 2C9
T2 construct: purchased Promega Corporation
T2 sequence (P11712 whole entry): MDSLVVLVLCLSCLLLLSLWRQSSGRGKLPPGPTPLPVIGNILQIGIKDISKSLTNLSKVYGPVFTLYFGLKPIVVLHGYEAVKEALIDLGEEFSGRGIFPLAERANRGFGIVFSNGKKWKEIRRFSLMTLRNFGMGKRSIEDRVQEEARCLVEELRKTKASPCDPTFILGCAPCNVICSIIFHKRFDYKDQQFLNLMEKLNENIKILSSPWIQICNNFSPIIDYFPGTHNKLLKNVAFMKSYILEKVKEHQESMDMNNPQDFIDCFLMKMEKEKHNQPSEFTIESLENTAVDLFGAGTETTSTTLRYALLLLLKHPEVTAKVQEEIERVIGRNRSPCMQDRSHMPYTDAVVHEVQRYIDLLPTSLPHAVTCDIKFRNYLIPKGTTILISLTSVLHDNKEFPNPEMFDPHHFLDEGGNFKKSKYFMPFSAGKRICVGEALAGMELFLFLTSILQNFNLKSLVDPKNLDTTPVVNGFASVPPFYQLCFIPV
Procedure: (§5) Tests were carried out using human recombinant enzymes CYP1A2, CYP2C9, CYP2C19, CYP2D6 and CYP3A4 and P450-Glo™ screening system (Promega Corporation). Briefly, using a white opaque 96-well plate, one-fourth of the final reaction volume of a 4×cytochrome P450 reaction mixture containing the requisite luminogenic substrate was combined with an equal volume of the test compound (0.03-30 μM) or known inhibitor control at a 4×concentration to give one-half of the final reaction volume. A 10-minute pre-incubation was performed. One-half the final volume of the 2×NADPH regeneration system was then added to initiate the CYP reactions, and bring all components to their 1×target concentrations. The plate is incubated at 37° C. for 30 minutes. The luciferin detection reagent was added which stops the CYP reaction and initiates luminescence. The signal was allowed to stabilize for 20 minutes at room temperature and then the luminescence was read. The net CYP-dependent luminescence was calculated by subtracting the average luminescence of the control reactions from the CYP-containing reactions. Changes from the average net signal of untreated CYP reactions for reactions with a test compound reflect the inhibition of CYP activity by this compound.

CYP2C19 = target: T3, CYP2C19 (Homo sapiens, UniProt P33261); test: Inhibition of cytochrome P450 (P450-Glo) CYP2C19; format: biochemical; conditions: human recombinant enzyme, read-out: CYP450 Inhibition (IC50 microM) 2C19
T3 construct: purchased Promega Corporation
T3 sequence (P33261 whole entry): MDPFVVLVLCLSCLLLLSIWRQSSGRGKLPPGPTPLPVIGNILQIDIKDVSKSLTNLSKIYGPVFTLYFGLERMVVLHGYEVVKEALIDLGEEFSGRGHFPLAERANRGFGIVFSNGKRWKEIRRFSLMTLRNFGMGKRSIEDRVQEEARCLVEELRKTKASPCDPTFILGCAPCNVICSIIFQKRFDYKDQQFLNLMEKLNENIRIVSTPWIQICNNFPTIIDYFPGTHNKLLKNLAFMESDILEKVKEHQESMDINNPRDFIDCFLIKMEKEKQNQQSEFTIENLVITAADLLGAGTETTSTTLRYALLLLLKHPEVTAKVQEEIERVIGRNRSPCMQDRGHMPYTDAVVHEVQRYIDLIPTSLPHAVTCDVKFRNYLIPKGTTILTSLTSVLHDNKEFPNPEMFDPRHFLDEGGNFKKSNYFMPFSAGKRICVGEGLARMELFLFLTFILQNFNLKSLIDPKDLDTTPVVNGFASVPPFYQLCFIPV
Procedure: as §5

CYP2D6 = target: T4, CYP2D6 (Homo sapiens, UniProt P10635); test: Inhibition of cytochrome P450 (P450-Glo) CYP2D6; format: biochemical; conditions: human recombinant enzyme, read-out: CYP450 Inhibition (IC50 microM) 2D6
T4 construct: purchased Promega Corporation
T4 sequence (P10635 whole entry): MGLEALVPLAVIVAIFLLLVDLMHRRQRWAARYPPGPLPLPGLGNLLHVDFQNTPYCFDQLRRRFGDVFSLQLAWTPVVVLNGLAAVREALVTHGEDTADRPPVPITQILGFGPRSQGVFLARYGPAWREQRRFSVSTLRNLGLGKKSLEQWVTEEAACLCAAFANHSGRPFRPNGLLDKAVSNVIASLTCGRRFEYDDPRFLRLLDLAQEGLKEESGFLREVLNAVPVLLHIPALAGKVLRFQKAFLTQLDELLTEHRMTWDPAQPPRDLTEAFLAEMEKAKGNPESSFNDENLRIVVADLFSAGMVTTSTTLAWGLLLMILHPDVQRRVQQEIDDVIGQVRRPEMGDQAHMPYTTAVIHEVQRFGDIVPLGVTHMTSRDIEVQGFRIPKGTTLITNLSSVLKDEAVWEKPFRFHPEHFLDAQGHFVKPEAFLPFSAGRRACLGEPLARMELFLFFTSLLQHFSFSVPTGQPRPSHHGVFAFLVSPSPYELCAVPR
Procedure: as §5

CYP3A4 = target: T5, CYP3A4 (Homo sapiens, UniProt P08684); test: Inhibition of cytochrome P450 (P450-Glo) CYP3A4; format: biochemical; conditions: human recombinant enzyme, read-out: CYP450 Inhibition (IC50 microM) 3A4
T5 construct: purchased Promega Corporation
T5 sequence (P08684 whole entry): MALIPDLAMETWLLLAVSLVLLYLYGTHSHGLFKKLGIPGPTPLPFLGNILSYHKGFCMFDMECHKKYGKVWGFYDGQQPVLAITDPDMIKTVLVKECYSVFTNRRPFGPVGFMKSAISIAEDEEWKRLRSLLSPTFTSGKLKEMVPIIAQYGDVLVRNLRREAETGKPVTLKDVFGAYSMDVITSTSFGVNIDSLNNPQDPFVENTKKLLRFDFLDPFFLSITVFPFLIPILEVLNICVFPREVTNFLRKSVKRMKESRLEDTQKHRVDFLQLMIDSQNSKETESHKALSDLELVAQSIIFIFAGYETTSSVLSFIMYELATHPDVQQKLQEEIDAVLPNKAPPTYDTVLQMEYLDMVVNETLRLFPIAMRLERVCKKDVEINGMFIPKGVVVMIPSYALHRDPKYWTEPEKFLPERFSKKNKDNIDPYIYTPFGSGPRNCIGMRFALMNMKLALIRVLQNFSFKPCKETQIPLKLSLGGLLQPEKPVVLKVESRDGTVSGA
Procedure: as §5

[7] = Table 1, identification of the active enantiomer, J774.2 cells, read-out: IC50 measured by inhibition of Nitric Oxide release
[8] = Table 2, J774.2 cells, read-out: IC50 (μM) NO
[9] = **Level of TNF for Aβ(1-42) alone: 13184 pg/mL
[10] = *Level of TNF for Aβ(1-42) alone: 9699 pg/mL

`Cc1nc2ncnn2c2c1CCN2C(C)c1ccccc1` (single isomer, unassigned) [Compound 4] showed an IC50 [1, 7] of 3 µM, an IC50 [1, 8] of 3 µM and an IC50 [2, 9] of 5.5 µM.

Compound `Cc1nc2ncnn2c2c1CCN2[C@H](c1ccccc1)C(F)(F)F` [Compound 1, (R)-5-Methyl-8-[2,2,2-trifluoro-1-phenylethyl]-7,8-dihydro-6H-pyrrolo[3,2e][1,2,4]-triazolo[1,5-a]pyrimidine] has an IC50 [1, 8] of 1.1 µM, an IC50 [2, 10] of 1.44 µM and a Papp A→B at 60 min, 10 μM [3] of 350 nm/s. The “Cell Perm A-B/B-A” value [4] was 0.55, the half-life at 1 μM [5] was over 60 min and the half-life at 1 μM [6] was 35 min. For the same compound, the IC50 (CYP1A2) was over 20 µM, the IC50 (CYP2C9) was 14 µM and the IC50 (CYP2C19) was over 10 µM. The IC50 (CYP2D6) was over 20 µM, the IC50 (CYP3A4) was 8 µM and the melting point was 153 to 155 °C.

With `Cc1nc2ncnn2c2c1CCN2[C@H](c1ccc(F)cc1)C(F)(F)F` [Compound 2, (R)-5-Methyl-8-[2,2,2-trifluoro-1-(4-fluorophenyl)ethyl]-7,8-dihydro-6H-pyrrolo[3,2e][1,2,4]triazolo[1,5-a]pyrimidine] the IC50 [1, 8] was 0.8 µM, the IC50 [2, 9] was 3.2 µM and the IC50 [2, 10] was 0.91 µM. For the same compound, the Papp A→B at 60 min, 10 μM [3] was 720 nm/s, the “Cell Perm A-B/B-A” value [4] was 0.37 and the half-life at 1 μM [5] was over 60 min. It also gave a half-life at 1 μM [6] of 60 min, an IC50 (CYP1A2) of over 20 µM and an IC50 (CYP2C9) of over 20 µM. It also gave an IC50 (CYP2C19) of over 20 µM, an IC50 (CYP2D6) of over 20 µM and an IC50 (CYP3A4) of 19 µM.

For `Cc1nc2ncnn2c2c1CCN2[C@@H](C)c1ccccc1` [Compound 5, (S)-8-[1-(Phenyl)ethyl]-5-methyl-7,8-dihydro-6H-pyrrolo[3,2e][1,2,4]triazolo[1,5-a]pyrimidine], the IC50 [1, 7] was 1.5 µM, the IC50 [1, 8] was 1.5 µM and the IC50 [2, 9] was 2.3 µM. The Papp A→B at 60 min, 10 μM [3] was 350 nm/s, the “Cell Perm A-B/B-A” value [4] was 0.85 and the half-life at 1 μM [5] was over 60 min. The half-life at 1 μM [6] was 15 min, the IC50 (CYP1A2) was over 100 µM and the IC50 (CYP2C9) was over 100 µM. The IC50 (CYP2C19) was 13 µM, the IC50 (CYP2D6) was 21 µM and the IC50 (CYP3A4) was 0.53 µM.

Compound `Cc1nc2ncnn2c2c1CCN2[C@H](C)c1ccccc1` [Compound 6, (R)-8-[1-(Phenyl)ethyl]-5-methyl-7,8-dihydro-6H-pyrrolo[3,2e][1,2,4]triazolo[1,5-a]pyrimidine] has an IC50 [1, 7] of 30 µM.

For `Cc1nc2ncnn2c2c1CCN2[C@@H](C)c1ccc(F)cc1` [Compound 7, (S)-8-[1-(4-Fluorophenyl)ethyl]-5-methyl-7,8-dihydro-6H-pyrrolo [3,2e][1,2,4]triazolo[1,5-a]pyrimidine], the “Cell Perm (Papp 10^−6 cm s^−1) A-B” value ([4]; apical-to-basolateral, 60 minutes at 37° C.) was 33 10^−6 cm s^−1, the “Cell Perm A-B/B-A” value [4] was 0.85 and the “Microsomes t1/2 (mins) Human” value [5] was over 60 min. For the same compound, the “Microsomes t1/2 (mins) Rat” value [6] was 15 min, the IC50 (CYP1A2) was 99 µM and the IC50 (CYP2C9) was 27 µM. The IC50 (CYP2C19) was 7 µM, the IC50 (CYP2D6) was 15 µM and the IC50 (CYP3A4) was 0.83 µM.
